For experiment [1], the target named is T1, hCRTH2 receptor (Homo sapiens (Human), UniProt Q9Y5Y4). In words: hCRTH2 receptor membranes radioligand displacement assay (3H-PGD2). Conditions: 3H-PGD2 2.5 nM, HEK293-hCRTH2 membranes, Binding-Buffer with 0.1% BSA. The method, then: Biological Assays: Preparation of hCRTH2 Receptor Membranes and Radioligand Displacement Assay:
(§1) First, recombinant HEK293-hCRTH2 cells were detached from culture plates into 5 ml buffer A/plate (Buffer A: 5 mM Tris, 1 mM MgCl2-6H2O pH=7.4) using a rubber policeman. Cells were then transferred into centrifugation tubes and centrifuged for 5 min at 400 g. The cell pellet was resuspended in the same buffer and tubes were frozen at −80° C. Cells were thawed and membrane fragments were generated by homogenization using a polytron homogenizer (30 seconds). The membrane fragments were then centrifuged at 3000 g for 20 minutes and resuspended in buffer C (Buffer C: 75 mM Tris, 25 mM MgCl2, 250 mM Saccharose pH 7.4). Aliquots of membrane fragements were stored at −20° C.
(§2) Binding assay was performed in a final assay volume of 250 μl. First, 25 μl of test compound, previously diluted in Binding-Buffer (Binding-Buffer: 50 mM Tris-Base, 100 mM NaCl, 1 mM EDTA, 0.1% BSA (protease free), 0.01% NaN3, 10 mM MnCl2 pH 7.0) was placed into each well. After addition of 75 μl Binding-Buffer, 50 μl of the radioligand ^3H-PGD2 (at 2.5 nM (220.000 dpm/well) from ANAWA ART0662) was added to each well. Binding assay was started by addition of 100 μl CRTH2 membrane fragments, reaching a final concentration of 20 μg/well. For non-specific binding, PGD2 was added to the reaction mixture to […] final concentration. This assay mix was incubated for 90 minutes at room temperature and then filtered through a GF/C filter 96-well plate which was pre-soaked for 3 hours in 0.5% polyethyleneimine (PEI). The filter-wells were washed three times with ice cold Binding-Buffer. Then, 40 μl of Microscint-40 (Packard) was added to each well and the retained radioactivity quantified in a Topcount (Packard).
For orientation: Loss of bound radioactivity is the signal in a displacement assay; it reports binding, not function.

The target in experiment [2] is T1, hCRTH2 receptor. In words: Radioligand displacement assay in presence of human serum albumin (HSA). Particulars: 3H-PGD2 2.5 nM, Binding-Buffer with 0.5% HSA instead of 0.1% BSA. On the procedure:
as §1, §2
Radioligand Displacement Assay-Human Serum Albumin (HSA):
Radioligand displacement assay in presence of human serum albumin (HSA) was performed as described above, with following modifications. Binding-Buffer-HSA: Binding-buffer+0.5% Sigma Albumin from Human serum A1887 (instead of 0.1% BSA). A volume of 25 μl test compound, previously diluted in Binding-Buffer-HSA was placed into each well. After addition of 75 μl Binding-Buffer-HSA, 50 μl of ^3H-PGD2 (at 2.5 nM (220.000 dpm/well) from ANAWA ART0662) was added to each well. Remaining protocol was identical as described above.

The subject of the next experiment is eosinophils. In words: Eosinophil shape change assay with human plasma. The class given is cell-based. Conditions: human polymorphonuclear cells, 50% human plasma, activated with 100 nM PGD2. On the procedure:
After obtaining informed consent, blood samples were drawn by venipuncture according to the protocol approved by the ethics committee of Basel, Switzerland. Polymorphonuclear leukocytes (containing eosinophils, basophils and neutrophils) were isolated using the Polymorphprep™ method (Axis-Shield). In brief, anticoagulated whole blood was layered onto a Polymorphprep gradient (density 1.113 g/ml) and centrifuged at 500 g for 30 min. The polymorphonuclear cell fraction was harvested and depleted for erythrocytes by hypotonic saline lysis.
The polymorphonuclear cells were resuspended in assay buffer (1×PBS with Ca^2+/Mg^2+ supplemented with 0.1% BSA, 10 mM HEPES, and 10 mM Glucose, pH 7.4) at 5×10^6 cells/ml and stained with anti-CD49d-APC ((APC=Allophycocyanin) for 1 hour at RT. Test compounds, at various concentrations, were preincubated 10 min in human plasma (anticoagulated with a thrombin inhibitor). Then, human plasma was added to the polymorphonuclear cells to 50% of final assay volume with polymorphonuclear cells at 4×10^6 cells/rd. After incubation for 10 minutes at 37° C., the polymorphonuclear cells were activated for 5 min at 37° C. by addition of PGD2 at 100 nM final concentration. Activation was stopped by addition of 0.5 ml paraformaldehyde (1%).
Immediately after fixation with paraformaldehyde, the samples were analyzed by FACSCanto flow cytometer (BD Biosciences) and target cells were identified by their forward-scatter (FSC) and side-scatter (SSC) characteristics. Eosinophils were identified by the anti-CD49d-APC signal and their characteristic side-scatter (SSC) profile. Shape change responses, indicative of eosinophil activation, were quantified as the percent of cells with an increased forward-scatter.

This note sets out measurements from patent publication US8697869B2, “3-(heteroaryl-amino)-1,2,3,4-tetrahydro-9H-carbazole derivatives and their use as prostaglandin D2 receptor modulators” (Actelion Pharmaceuticals Ltd., priority 2010, dated 2014).

In general, IC50 refers to the concentration that gives 50% inhibition.

T1 sequence (Q9Y5Y4 whole entry, the tested form may be a part): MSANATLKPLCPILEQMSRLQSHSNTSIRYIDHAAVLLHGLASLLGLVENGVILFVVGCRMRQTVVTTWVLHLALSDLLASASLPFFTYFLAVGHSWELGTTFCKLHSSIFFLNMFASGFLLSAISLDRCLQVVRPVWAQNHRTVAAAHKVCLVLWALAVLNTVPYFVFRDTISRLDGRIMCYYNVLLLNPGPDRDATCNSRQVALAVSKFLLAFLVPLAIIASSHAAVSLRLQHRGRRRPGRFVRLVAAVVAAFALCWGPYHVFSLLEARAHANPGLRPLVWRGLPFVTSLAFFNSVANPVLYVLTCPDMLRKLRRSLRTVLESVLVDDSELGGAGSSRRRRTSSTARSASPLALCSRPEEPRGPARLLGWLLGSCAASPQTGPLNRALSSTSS

In the case of `CN(c1nc2ccccc2o1)[C@H]1CCc2c(c3cc(F)ccc3n2CC(=O)O)C1` [Example 19, (3S)-2-(3-(benzo[d]oxazol-2-yl(methyl)amino)-6-fluoro-3,4-dihydro-1H-carbazol-9(2H)-yl)acetic acid], the IC50 at hCRTH2 receptor [1] came to 0.0073 µM; on hCRTH2 receptor [2], 0.017 µM; in the experiment with eosinophils (Eosinophil), 0.031 µM.

Consider `O=C(O)Cn1c2c(c3cc(F)ccc31)C[C@@H](N(CC1CC1)c1ncc(Cl)cn1)CC2` [Example 27, (3S)-2-(3-((5-chloropyrimidin-2-yl)(cyclopropylmethyl)amino)-6-fluoro-3,4-dihydro-1H-carbazol-9(2H)-yl)acetic acid], for which the IC50 at hCRTH2 receptor [1] was 0.0017 µM; on hCRTH2 receptor [2], 0.006 µM; in the experiment on eosinophils (Eosinophil), 0.014 µM.

Consider `CN(c1nc2ccc(Cl)cc2o1)[C@H]1CCc2c(c3cc(F)ccc3n2CC(=O)O)C1` [Example 40, (3S)-2-(6-fluoro-3-((6-chlorobenzo[d]oxazol-2-yl)(methyl)amino)-3,4-dihydro-1H-carbazol-9(2H)-yl)acetic acid], for which the results for the IC50 on hCRTH2 receptor [1], at hCRTH2 receptor [2] and in the experiment on eosinophils (Eosinophil) were 0.002 µM, 0.021 µM and 0.075 µM, respectively.

Regarding `CN(c1nc2cc(Cl)ccc2s1)[C@H]1CCc2c(c3cc(F)ccc3n2CC(=O)O)C1` [Example 33, (3S)-2-(3-((5-chlorobenzo[d]thiazol-2-yl)(methyl)amino)-6-fluoro-3,4-dihydro-1H-carbazol-9(2H)-yl)acetic acid], the IC50 on hCRTH2 receptor [1] is 0.01 µM; on hCRTH2 receptor [2], 0.008 µM; in the experiment with eosinophils (Eosinophil), 0.046 µM.

For `O=C(O)Cn1c2c(c3cc(F)ccc31)C[C@H](Nc1ncc(Cl)cn1)CC2` [Example 4, (3R)-2-(6-fluoro-3-((5-chloropyrimidin-2-yl)amino)-3,4-dihydro-1H-carbazol-9-(2H)-yl)acetic acid], the IC50 on hCRTH2 receptor [1] came out at 0.013 µM; on hCRTH2 receptor [2], 0.027 µM; in the experiment on eosinophils, 0.722 µM.

For the molecule `CN(c1ncc2ccccc2n1)[C@H]1CCc2c(c3cc(F)ccc3n2CC(=O)O)C1` [Example 28, (3S)-2-(6-fluoro-3-(methyl(quinazolin-2-yl)amino)-3,4-dihydro-1H-carbazol-9(2H)-yl)acetic acid], the IC50 on hCRTH2 receptor [1] amounted to 0.012 µM; on hCRTH2 receptor [2], 0.022 µM; with eosinophils (Eosinophil), 0.025 µM.

`CN(c1nc2ccc(Cl)cc2s1)[C@H]1CCc2c(c3cc(F)ccc3n2CC(=O)O)C1` [Example 32, (3S)-2-(3-((6-chlorobenzo[d]thiazol-2-yl)(methyl)amino)-6-fluoro-3,4-dihydro-1H-carbazol-9(2H)-yl)acetic acid]: the IC50 on hCRTH2 receptor [1] amounted to 0.0067 µM; at hCRTH2 receptor [2], 0.02 µM; in the experiment with eosinophils (Eosinophil) it was 0.033 µM.

With `CN(c1ncc(F)cn1)[C@H]1CCc2c(c3cc(F)ccc3n2CC(=O)O)C1` [Example 7, (3S)-2-(6-fluoro-3-((5-fluoropyrimidin-2-yl)(methyl)amino)-3,4-dihydro-1H-carbazol-9(2H)-yl)acetic acid], the IC50 is 0.0025 µM at hCRTH2 receptor [1], 0.007 µM on hCRTH2 receptor [2] and 0.008 µM in the experiment with eosinophils (Eosinophil).

Turning to `CN(c1ncc(C2CC2)cn1)[C@H]1CCc2c(c3cc(F)ccc3n2CC(=O)O)C1` [Example 42, (3S)-2-(3-((5-cyclopropylpyrimidin-2-yl)(methyl)amino)-6-fluoro-3,4-dihydro-1H-carbazol-9(2H)-yl)acetic acid], the figures for the IC50 at hCRTH2 receptor [1], at hCRTH2 receptor [2] and in the experiment with eosinophils (Eosinophil) were 0.0022 µM, 0.036 µM and 0.019 µM, respectively.

`CN(c1ncc(C(F)(F)F)cn1)[C@H]1CCc2c(c3cc(F)ccc3n2CC(=O)O)C1` [Example 11, (3S)-2-(6-fluoro-3-(methyl(5-(trifluoromethyl)pyrimidin-2-yl)amino)-3,4-dihydro-1H-carbazol-9(2H)-yl)acetic acid]: the results for the IC50 on hCRTH2 receptor [1], at hCRTH2 receptor [2] and with eosinophils (Eosinophil) were 0.002 µM, 0.015 µM and 0.049 µM, respectively.

For the molecule `Cc1csc(N(C)C2CCc3c(c4cc(F)ccc4n3CC(=O)O)C2)n1` (stereo not drawn) [Example 45, 2-(6-fluoro-3-(methyl(4-methylthiazol-2-yl)amino)-3,4-dihydro-1H-carbazol-9(2H)-yl)acetic acid], the values for the IC50 on hCRTH2 receptor [1], at hCRTH2 receptor [2] and in the experiment on eosinophils (Eosinophil) were 0.0097 µM, 0.025 µM and 0.414 µM, respectively.
